Values quoted from earlier work, collected in patent publication US20090062317A1, “MEDICINAL USE OF RECEPTOR LIGANDS” (7TM PHARMA A/S, priority 2004, published 2009).

Test system: rats
Settings: literature reports

SMILES | food intake induced by i.c.v.-injected MCH
CN(C)CC1CCc2cc(NC(=O)c3ccc(-c4ccc(F)cc4)cc3)ccc2C1 (centres unmarked) [Example T-226296] | suppress food intake
COCC1=C(C(=O)OC)[C@H](c2ccc(F)c(F)c2)N(C(=O)NCCCN2CCC(c3cccc(NC(C)=O)c3)CC2)C(=O)N1 [SNAP-7941] | suppress food intake
